Test results taken from US5698411A, “Method for determining activity of enzymes in metabolically active whole cells” (priority 1995, dated 1997).
Where a name gives a salt, the structure may show the parent alone. Numbered stars: 1 amine (or outer) side, 2 acyl side, 3 side chain; on linkers, the order of the positions; unused ones are H or OH. Bridge positions count the residues as written; N and C are the ends. Peptide text beside a SMILES is read from it. I, II: the chains in the order shown. Rhodamine110 = O=C1OC2(c3ccc(N[*:1])cc3Oc3cc(N[*:2])ccc32)c2ccccc21

Legend:
Assay type in all cases: cell-based, human
[1] = test system: granulocytes; test: aberrant enzyme activities in febrile children, granulocytes (Table 7)
[2] = test system: lymphocytes; test: aberrant enzyme activities in febrile children, lymphocytes (Table 7)
[3] = test system: monocytes; test: aberrant enzyme activities in febrile children, monocytes (Table 7)
[4] = P88 Enteritis, listed as Z-Gly/Pro

SMILES	aberrant enzyme activity, GRANS ([1]; P88 Enteritis)	aberrant enzyme activity, GRANS ([1]; P89 Viral Stomatitis)	aberrant enzyme activity, GRANS ([1]; P92 Adenitis)	aberrant enzyme activity, GRANS ([1]; P103 Viral Syndrome)	aberrant enzyme activity, LYMPHS ([2]; P88 Enteritis)	aberrant enzyme activity, LYMPHS ([2]; P89 Viral Stomatitis)	aberrant enzyme activity, LYMPHS ([2]; P92 Adenitis)	aberrant enzyme activity, LYMPHS ([2]; P97 Pyelonephritis)	aberrant enzyme activity, LYMPHS ([2]; P103 Viral Syndrome)	aberrant enzyme activity, MONOS ([3]; P88 Enteritis)	aberrant enzyme activity, MONOS ([3]; P89 Viral Stomatitis)	aberrant enzyme activity, MONOS ([3]; P92 Adenitis)	aberrant enzyme activity, MONOS ([3]; P97 Pyelonephritis)	aberrant enzyme activity, MONOS ([3]; P103 Viral Syndrome)	aberrant enzyme activity, GRANS ([1]; P97 Pyelonephritis)	aberrant enzyme activity, GRANS ([1]; P96 Viral Syndrome)	aberrant enzyme activity, GRANS ([1]; P99 Viral Syndrome)	aberrant enzyme activity, MONOS ([3]; P96 Viral Syndrome)	aberrant enzyme activity, MONOS ([3]; P99 Viral Syndrome)	aberrant enzyme activity, MONOS ([3]; P102 UTI)	further results
C[C@@H](O)[C@H](NC(=O)OCc1ccccc1)C(=O)N1CCC[C@H]1C(=O)Nc1ccc2c(c1)Oc1cc(NC(=O)[C@@H]3CCCN3C(=O)[C@@H](NC(=O)OCc3ccccc3)[C@@H](C)O)ccc1C21OC(=O)c2ccccc21 [Z-TP6.5, (carbobenzyloxycarbonyl-Thr-Pro)2 Rho 110 (pH 6.5)]	- (>0.25 Decrease over normal range)	- (>0.25 Decrease over normal range)	- (>0.25 Decrease over normal range)	.smallcircle.	- (>0.25 Decrease over normal range)	- (>0.25 Decrease over normal range)	- (>0.25 Decrease over normal range)	.smallcircle.	.smallcircle.	- (>0.25 Decrease over normal range)	- (>0.25 Decrease over normal range)	- (>0.25 Decrease over normal range)	.smallcircle.	.smallcircle.	–	–	–	–	–	–	–
N[C@@H](CO)C(=O)Nc1ccc2c(c1)Oc1cc(NC(=O)[C@@H](N)CO)ccc1C21OC(=O)c2ccccc21 [SER, (H-L-Ser)2 Rho 110 .2TFA]	–	–	–	.smallcircle.	–	–	.smallcircle.	.smallcircle.	.smallcircle.	–	–	.smallcircle.	.smallcircle.	–	.smallcircle.	–	–	–	–	–	–
CC(C)C[C@H](NC(=O)CNC(=O)[C@@H](N)CC(C)C)C(=O)NCC(=O)Nc1ccc2c(c1)Oc1cc(NC(=O)CNC(=O)[C@H](CC(C)C)NC(=O)CNC(=O)[C@@H](N)CC(C)C)ccc1C21OC(=O)c2ccccc21 [LGLG, (H-L-Leu--Gly--Leu--Gly)2 Rho 110 .2TFA] (I: H-LGLG / II: H-LGLG; linker I:C-II:C via Rhodamine110)	–	–	.smallcircle.	.smallcircle.	–	–	.smallcircle.	.smallcircle.	.smallcircle.	–	–	.smallcircle.	.smallcircle.	.smallcircle.	.smallcircle.	–	–	–	–	–	–
C[C@H](NC(=O)[C@@H](N)CCCCN)C(=O)Nc1ccc2c(c1)Oc1cc(NC(=O)[C@H](C)NC(=O)[C@@H](N)CCCCN)ccc1C21OC(=O)c2ccccc21 [KA, (Lys-Ala)2 Rho 110]	.smallcircle.	.smallcircle.	.smallcircle.	.smallcircle.	.smallcircle.	.smallcircle.	.smallcircle.	.smallcircle.	.smallcircle.	.smallcircle.	.smallcircle.	.smallcircle.	+ (>0.25 Increase over normal range)	.smallcircle.	.smallcircle.	.smallcircle.	.smallcircle.	.smallcircle.	.smallcircle.	.smallcircle.	aberrant enzyme activity, GRANS ([1]; P95 Viral Syndrome): .smallcircle.; aberrant enzyme activity, GRANS ([1]; P101 Fever -- Unknown Origin): + (>0.25 Increase over normal range); aberrant enzyme activity, GRANS ([1]; P102 UTI): .smallcircle.; aberrant enzyme activity, LYMPHS ([2]; P95 Viral Syndrome): .smallcircle.; aberrant enzyme activity, LYMPHS ([2]; P96 Viral Syndrome): .smallcircle.; aberrant enzyme activity, LYMPHS ([2]; P99 Viral Syndrome): .smallcircle.; aberrant enzyme activity, LYMPHS ([2]; P102 UTI): .smallcircle.; aberrant enzyme activity, MONOS ([3]; P95 Viral Syndrome): .smallcircle.; aberrant enzyme activity, MONOS ([3]; P101 Fever -- Unknown Origin): + (>0.25 Increase over normal range)
C[C@H](N)C(=O)N[C@@H](C)C(=O)Nc1ccc2c(c1)Oc1cc(NC(=O)[C@H](C)NC(=O)[C@H](C)N)ccc1C21OC(=O)c2ccccc21 [AA-TFA, (H-L-Ala--Ala)2 Rho 110 .2TFA]	–	–	–	–	–	–	.smallcircle.	.smallcircle.	.smallcircle.	–	–	–	–	–	–	–	–	–	–	–	–
O=C1OC2(c3ccc(OC4O[C@H](CO)[C@@H](O)[C@H](O)[C@H]4O)cc3Oc3cc(OC4O[C@H](CO)[C@@H](O)[C@H](O)[C@H]4O)ccc32)c2ccccc21 (stereo partly drawn) [DGLUC, (D-glucose)2 fluorescein]	.smallcircle.	+ (>0.25 Increase over normal range)	+ (>0.25 Increase over normal range)	+ (>0.25 Increase over normal range)	.smallcircle.	.smallcircle.	.smallcircle.	–	- (>0.25 Decrease over normal range)	- (>0.25 Decrease over normal range)	.smallcircle.	- (>0.25 Decrease over normal range)	–	+ (>0.25 Increase over normal range)	–	–	–	–	–	–	–
O=C(NCC(=O)N1CCC[C@H]1C(=O)Nc1ccc2c(c1)Oc1cc(NC(=O)[C@@H]3CCCN3C(=O)CNC(=O)OCc3ccccc3)ccc1C21OC(=O)c2ccccc21)OCc1ccccc1 [Z-GP, (carbobenzyloxycarbonyl-Gly-Pro)2 Rho 110]	–	–	- (>0.25 Decrease over normal range)	.smallcircle.	–	- (>0.25 Decrease over normal range)	- (>0.25 Decrease over normal range)	–	- (>0.25 Decrease over normal range)	–	.smallcircle.	- (>0.25 Decrease over normal range)	.smallcircle.	.smallcircle.	.smallcircle.	.smallcircle.	.smallcircle.	.smallcircle.	.smallcircle.	.smallcircle.	aberrant enzyme activity, GRANS [1, 4]: .smallcircle.; aberrant enzyme activity, GRANS ([1]; P95 Viral Syndrome): - (>0.25 Decrease over normal range); aberrant enzyme activity, LYMPHS [2, 4]: .smallcircle.; aberrant enzyme activity, LYMPHS ([2]; P95 Viral Syndrome): - (>0.25 Decrease over normal range); aberrant enzyme activity, LYMPHS ([2]; P96 Viral Syndrome): - (>0.25 Decrease over normal range); aberrant enzyme activity, LYMPHS ([2]; P97 Pyelonephritis, listed as Z-Gly/Pro): .smallcircle.; aberrant enzyme activity, LYMPHS ([2]; P101 Fever -- Unknown Origin): - (>0.25 Decrease over normal range); aberrant enzyme activity, MONOS [3, 4]: .smallcircle.; aberrant enzyme activity, MONOS ([3]; P95 Viral Syndrome): .smallcircle.; aberrant enzyme activity, MONOS ([3]; P101 Fever -- Unknown Origin): - (>0.25 Decrease over normal range)
C[C@H](NC(=O)OCc1ccccc1)C(=O)N[C@@H](C)C(=O)Nc1ccc2c(c1)Oc1cc(NC(=O)[C@H](C)NC(=O)[C@H](C)NC(=O)OCc3ccccc3)ccc1C21OC(=O)c2ccccc21 [Z-AA, (Z-Ala--Ala)2 Rho 110]	–	–	–	.smallcircle.	–	–	–	–	–	–	–	–	.smallcircle.	.smallcircle.	.smallcircle.	.smallcircle.	.smallcircle.	.smallcircle.	.smallcircle.	.smallcircle.	aberrant enzyme activity, GRANS ([1]; P102 UTI): .smallcircle.; aberrant enzyme activity, LYMPHS ([2]; P99 Viral Syndrome): .smallcircle.; aberrant enzyme activity, LYMPHS ([2]; P102 UTI): .smallcircle.
CC(C)C[C@H](NC(=O)[C@@H](N)CC(C)C)C(=O)N[C@@H](CCCNC(=N)N)C(=O)Nc1ccc2c(c1)Oc1cc(NC(=O)[C@H](CCCNC(=N)N)NC(=O)[C@H](CC(C)C)NC(=O)[C@@H](N)CC(C)C)ccc1C21OC(=O)c2ccccc21 (some centres unmarked) [LLR, (H-L Leu--Leu--Arg)2 Rho 110 .4TFA]	–	–	.smallcircle.	.smallcircle.	–	–	.smallcircle.	.smallcircle.	.smallcircle.	–	–	.smallcircle.	.smallcircle.	–	.smallcircle.	–	–	–	–	–	–
N[C@@H](CC(=O)O)C(=O)Nc1ccc2c(c1)Oc1cc(NC(=O)[C@@H](N)CC(=O)O)ccc1C21OC(=O)c2ccccc21 [ASP, (H-L-Asp)2 --Rho 110 .2TFA]	–	–	.smallcircle.	.smallcircle.	–	–	.smallcircle.	.smallcircle.	.smallcircle.	–	–	.smallcircle.	.smallcircle.	.smallcircle.	.smallcircle.	–	–	–	–	–	–
